Test results as given in patent publication US20230293591A1, “Therapeutic Substances, their Preparation and Diagnostic Procedure” (KING'S COLLEGE LONDON, priority 2017, published 2023).
Where a SMILES comes first, the peptide text is derived from it. The star is where a group is joined. Cbz = O=C(OCc1ccccc1)*; CH2F = FC*

Key:
caspase 3 = assay: Caspase 3 activation in MSC cultured with activated PBMC (FRET-MSC); type: cell-based, human
Method: Luc-MSC were transfected with the pGL3-Control vector containing the SV40 promoter for the expression of Luc+ (Promega, Southampton, UK) or with pECFPDEVDR-Venus (Addgene, Teddington, UK) using electroporation (Gene Pulser Xcell, BioRad, Kidlington, UK). Cells were suspended in a total volume of 250 μl of buffer and electroporated in 0.4 cm gap cuvettes using 10 μg of DNA at 250 volts and […]. When pECFP-DEVDR-Venus was used, the donor fluorophore pECFP and the acceptor Venus-YFP were linked through the flexible linker DEVDR which is recognized and cleaved by the active form of caspase 3. In this system caspase 3 activity can be monitored through the analysis of the Förster Resonance Energy Transfer (FRET) between pECFP and Venus-YFP. […]
The following antibodies specific for murine molecules were used: anti-CD45 (FITC, Clone 30-F11) (eBiosciences Ltd, Hatfield, UK), anti-Vβ8.3 (FITC, Clone 1B3.3), antiCD8 (APC, Clone 53-6.7), antiCD4 (PE, Clone H129.19), anti-CD19 (APC-H7, Clone 1D3), anti-NK1.1 (PerCP-Cy5.5, Clone PK136) (BD Biosciences, Oxford, UK), anti-CD11b (PerCP-Cy5.5, clone M1/70), anti-CD11c (APC-Cy7, clone n418), anti-Ido1 (Alexa Fluo647, clone 2e2) (BioLegend, London, UK). […] All samples were acquired using BD FACS Canto II using the software FACS Diva and analyzed with Flow-jo software. […]

PGE2 = PGE2 ELISA in supernatant of MSC co-cultured with IBD patients' PBMC; type: cell-based, human; details: MSC (5×10^4) and patients PBMC (1×10^6), 24 hours, inhibitor 50 μM
Method: In particular MSC (5×10^4) and patients PBMC (1×10^6) were co-cultured for 24 hours, either with or without addition of a pan-caspase inhibibtor, Z-VAD-FMK (50 μM).
Supernatant was collected and PGE2 levels were measured by ELISA.

[1] = test system: GvHD effector cells (CD8+Vβ8.3+); assay: Mouse GvHD model: infiltration of GvHD effector cells in spleen and lungs by flow-cytometry; type: in vivo; details: GvHD mice, IDO inhibitor 2 mg/ml in drinking water from 6 days prior to MSC injection
From the text: Acute GvHD was induced as previously described (T. Toubai et al. Blood, 119, 3844-3853 (2012)). Briefly, after lethal irradiation (11 Gy), recipient C57BL/6 male mice were transplanted with 1×10^6 purified CD8+ cells transgenic for a T-cell receptor specific for the male HY-antigen Uty (Matahari, Mh) from female Mh mice as GvHD effectors (FIG. 9A), 5×10^6 unfractionated bone marrow (BM) and 2×10^6 purified polyclonal CD4+ cells from female syngeneic donors (C57BL/6 wild-type donors). The control group received BM and purified CD4+ cells only. CD4+ and CD8+ T cells were obtained by positive selection using magnetic beads (Miltenyi Biotec Ltd, Bisley, UK). Live MSC (1×10^6) were injected i.v. at day +3, whilst apoMSC (1×10^6) were administered i.v. or i.p. at day +1, +3 and +6 from the transplant. Unless otherwise specified, animals were euthanized for analysis at day +7. The infiltration of GvHD effector cells was assessed by flow-cytometry and the percentage was expressed as proportion of cells in the lymphocyte gate, based on the physical characteristics of the cells.
In this model, the expansion of the T cells effecting GvHD (CD8+Vβ8.3+) can be precisely enumerated.

SMILES | caspase activation in MSC induced by activated PBMC in presence of inhibitor (caspase 3) | PGE2 levels in supernatant (PGE2) | beneficial effect of MSC on Mh T cell infiltration [1]
COC(=O)C[C@H](NC(=O)[C@H](C)NC(=O)[C@@H](NC(=O)OCc1ccccc1)C(C)C)C(=O)CF [Z-VAD-FMK] (Cbz-Val-Ala-Asp(OMe)-CH2F) | completely abrogated | largely reduce | –
Cn1cc(C[C@@H](N)C(=O)O)c2ccccc21 [1-DMT, 1-methyl-D-tryptophan] | – | – | much reduced
